This passage reports melting point results from a melting point compilation (Tetko et al.; mined from patent text by program, amines drawn as free bases though some values may be those of a salt).

SMILES strings stand for the structures. Where only a bound is given, the exact number is not on record here.

Regarding `CCOC(=O)C1=C(C)NC(CN(C)C)=C(C(=O)OCC)C1c1ccccc1/C=C/C(=O)OC(C)(C)C` (stereo unspecified), the melting point (commonly the temperature, or range, at which the solid turns liquid) lay in the range of 146 to 148 °C.

On to `O=C(O)Cc1c(Cl)nc(-c2ccccc2)n1Cc1cc([N+](=O)[O-])ccc1Cl`, for which the melting point lay in the range of 200 to 205 °C.

Molecule `COc1ccc(/C(=C/C=C/C(=O)Oc2ccc([N+](=O)[O-])cc2)c2ccccc2)cc1` had a melting point of 113 to 115 °C.

Regarding `Cn1c(CNCC2(C)COC2)cc2cc(NC(=O)c3ccc(OCC4CC4)cc3)ccc21`, the melting point fell in the range of 154 to 155 °C.

`O=C1NC(=O)c2c1c(-c1ccccc1)cc1c2c2cc(O)ccc2n1CCCn1ccnc1` returned a melting point of 309 to 311 °C.

`CC1(C)C(=O)Nc2cc3[nH]c(-c4cncnc4)nc3cc21` returned a melting point of 310 to 312 °C.

Regarding `CNC(=O)/C(=N/OC)c1ccccc1COc1ccc(C(F)(F)F)c(NC)n1`, the melting point lay within 66 to 67 °C.

Turning to `O=C(NNCCO)c1ccc(NCc2cc(Br)ccc2OCc2ccccc2)cc1`, the melting point lay within 121 to 122 °C.

On to `CC(C)(C(=O)O)n1c(=O)[nH]c2ccc(F)cc2c1=O`, for which the melting point lay in the range of 249 to 253 °C.

For the molecule `CC1(C)CCC(C)(C)c2cc(C(=O)c3ccc4cc(C(=O)O)ccc4c3)ccc21`, the melting point came out at 224 °C.

Consider `COC(=O)CCC(=O)c1ccc(-c2ccc(Cl)cc2)o1`, for which the melting point was in the range of 99 to 100 °C.

For `O=c1[nH]c(=O)n(C2CC(O)C(CO)O2)cc1C=CBr` (stereo unspecified), the melting point lay within 165 to 166 °C.

In turn, `CC(C)NS(=O)(=O)NC(C)C` came in with a melting point of 98 to 101 °C.

`COC(=O)C1(C)Oc2ccc(Cl)cc2C(C)(c2ccccc2)O1` (stereo unspecified) yielded a melting point of 134 °C.

With `CCCCCN1CC[C@@H](c2ccc(Br)cc2)[C@H](CO)C1` (racemic), the melting point is 128 to 130 °C.

Turning to `CCCCCn1c2ccccc2c2cc(C(=O)NN3CCCCC3)ccc21`, the melting point lay in the range of 158 to 159 °C.

As for `CN(CCc1ccc(Nc2ncc3c(n2)-c2ccccc2C(c2ccc(Cl)c(Cl)c2)C3)cc1)C1CCCCC1` (stereo unspecified), the melting point was 130 to 131 °C.

In turn, `CC(C)n1nc(-c2cc(C(=O)N3CCN(C)CC3)cnc2-c2ccccc2)ccc1=O` gave a melting point of 165 to 166 °C.

For `COc1ccc(S(=O)(=O)N2C(=O)C(N)(c3cc(OC)ccc3OC)c3cc(Cl)ccc32)c(OC)c1` (stereo unspecified), the melting point turned out to be 191 °C.

In the case of `COc1cc(C=CC(=O)c2ccccc2)cc(C(F)(F)F)c1O`, the melting point was in the range of 166 to 168 °C.

Molecule `O=C(NCC1(c2ccccc2)CCCC1)N1CCC(Sc2ccc(CCNC[C@H](O)COc3ccc(O)cc3)cc2)CC1` registered a melting point of 132 °C.

Molecule `Cc1ccc(C2OCCn3ccc(=O)c(O)c32)cc1` (stereo unspecified) came in with a melting point of 210 to 218 °C.

On to `COc1cc(Nc2nccc(-c3cccnc3)n2)cc(OC)c1OC`, for which the melting point turned out to be 155 °C.

Take `COc1ccc(-c2cc(Nc3ccc(NS(C)(=O)=O)cc3)nc(C)n2)cc1OC`: the melting point lay in the range of 180 to 185 °C.

The molecule `CC(Oc1ccc(Cl)cc1[N+](=O)[O-])c1ccnc2ncnn12` (stereo unspecified) came in with a melting point of 158 °C.

`CC(=O)C(CCCc1ccccc1)n1cnc2c(=O)[nH]c(Cc3ccc(OC(F)F)c(N)c3)nc21` (stereo unspecified) registered a melting point of 149 to 150 °C.

In the case of `CC(C)N1C(=O)c2ccccc2N(C#N)S1(=O)=O`, the melting point was in the range of 99 to 101 °C.

In the case of `CC(=O)c1nn(-c2c(Cl)cc(C(F)(F)F)cc2Cl)c(N)c1S(C)(=O)=O`, the melting point was in the range of 77 to 79 °C.

Take `Cc1cc(C)cc(N(CCCC(N)=O)Cc2ccc3nc(NCCCN4CCOCC4)n(Cc4ncccc4O)c3c2)c1`: the melting point is 170 °C.

Molecule `O=[N+]([O-])c1cc(NCCO)c(Cl)cc1NCCO` showed a melting point of 127 to 128 °C.

`CCCCOC(=O)c1ccccc1-c1ccc(Cn2c(CCCC)nc(C(C)(C)O)c2C(=O)O)cc1`: the melting point was 158 to 159 °C.

Molecule `Cc1ccc(Cl)cc1NC(=S)n1c(C)c(C)c2ccccc21` registered a melting point of 115 °C.

The molecule `CC(C)OC(=O)N1CCC(c2nc3cc(-c4ccc(C(N)=O)cn4)ccc3o2)CC1` returned a melting point of 227 to 230 °C.

For the molecule `Cc1nc(C(=O)NCCO[N+](=O)[O-])cs1`, the melting point lay in the range of 78 to 79 °C.

For `COc1ccc(Nc2nc(Cl)nc(NC3CCCCCC3)n2)cc1Cl`, the melting point was determined as 146 °C.

For `O=C1c2ccccc2C(=O)N1CCC(=O)N1c2ccccc2N(Cc2ccccc2)C(=O)[C@H]2CCC[C@H]21` (relative stereo), the melting point was 242 to 244 °C.

`COc1cc(-c2ccc3ncc(NC(=O)Nc4ccccc4)nc3n2)ccc1O` displayed a melting point of 240 °C.

With `CN(C)C(=S)SC(C[N+](=O)[O-])c1ccc(Cl)cc1Cl` (stereo unspecified), the melting point was 127 to 128 °C.

On to `CC1CCC2=NNC(=O)CC2C1` (stereo unspecified), for which the melting point is 116 to 118 °C.

`c1cn(Cc2ccc3c(c2)-c2[nH]nc(-c4ccsc4)c2C3)cn1`: the melting point lay in the range of 200 to 204 °C.

The molecule `O=C(O)c1ccc(-c2nn(Cc3cccc(Cl)c3)c(=S)[nH]2)cc1` yielded a melting point of 302 °C.

Take `Oc1cc(-c2ccccc2)nc2ccc(Cl)cc12`: the melting point was > 350 °C.

Molecule `COc1cc(-c2cc(=Nc3c(C)cc(C)cc3C)n(C)c(=O)n2C)ccc1O` came in with a melting point of 90 to 100 °C.

The molecule `ON=C(c1ccc(F)cc1)c1cccc2nc(N[C@@H]3CCc4ccccc43)ccc12` displayed a melting point of 184 °C.

Regarding `Cc1ccc(S(=O)(=O)NCCCCOc2ccc(-c3nc(-c4ccc(Cl)cc4)cs3)cc2)cc1`, the melting point was 158 to 159 °C.

Consider `CCOC(=O)c1ccccc1Nc1c([N+](=O)[O-])cc(C(F)(F)F)cc1[N+](=O)[O-]`, for which the melting point is 152 to 154 °C.

`COc1cc(OC)c(N2CCCC2)cc1/C=C/C(=O)c1ccc(S(=O)(=O)NCC(=O)O)cc1` registered a melting point of 155 to 158 °C.

For `CN1C(=O)N(CCCC(NS(=O)(=O)c2ccc(-c3ccc(Cl)cc3)cc2)C(=O)O)C(=O)C1(C)C` (stereo unspecified), the melting point was 68 to 71 °C.

As for `CN(C)C(=O)Cn1c(-c2ccc(C(F)(F)F)cc2)nc2cccnc21`, the melting point is 181 to 183 °C.

Turning to `Oc1ccc2nc(-c3ccc(O)c(F)c3)cc(-c3ccc(C(F)(F)F)cc3)c2c1`, the melting point fell in the range of 299 to 300 °C.

In turn, `CCN(CC)C(=O)c1cc(S(=O)(=O)Cc2ccccc2)c(N2CCC(c3ccccc3)CC2)cc1N(CC)CCN(C)C` displayed a melting point of 117 to 118 °C.

For the molecule `O=C1NC(=O)C(Cc2ccc(OCCON=Cc3ccccc3)cc2)S1` (stereo unspecified), the melting point is 126 to 129 °C.

The molecule `N#CC(C#N)=CN(N=C(C#N)C#N)c1ccc(Br)cc1` gave a melting point of 191 to 192 °C.

`Cc1oc(-c2ccccc2)nc1C(C)O` (stereo unspecified) displayed a melting point of 101 to 102 °C.

`O=C1c2ccccc2C(=O)C1c1cccc([N+](=O)[O-])c1` registered a melting point of 216 to 226 °C.

In turn, `COc1ccc(S(=O)(=O)C2(C(=O)O)CCN(CCCc3ccccc3)CC2)cc1` returned a melting point of 203 °C.

The molecule `Cc1ccc(S(=O)(=O)Nc2nc(C)c(C(=O)NCc3ccccc3)s2)cc1` showed a melting point of 242 to 245 °C.

`O=C(Nc1ccccn1)[C@H](Cc1ccccc1)C[C@@H](Cc1ccccc1)C(=O)N[C@@H](CSCc1ccccc1)C(=O)O` returned a melting point of 75 to 80 °C.

`O=C(O)C(O)c1ccc(Cc2ccccc2)s1` (stereo unspecified) had a melting point of 81 to 82 °C.

In turn, `CCOC(=O)CC(O)CC(O)C=Cc1c(C(C)C)sc(-c2ccccc2)c1-c1ccc(F)cc1` (stereo unspecified) yielded a melting point of 123 to 125 °C.

`CC(CC(O)(C(=O)Nc1ccc2c(c1)COC2=O)C(F)(F)F)c1ccccc1` (stereo unspecified) showed a melting point of 166 to 168 °C.

On to `CCOC(=O)c1nc2ccc(Cl)cc2c(=O)[nH]1`, for which the melting point lay within 249 to 251 °C.

Molecule `Cc1c(-c2cc(F)cc(C(F)(F)F)c2)ccc2nc(N)nc(N)c12` came in with a melting point of 225 to 226 °C.

Take `N[C@@H](Cc1ccccc1)c1nc2c(C(F)(F)F)cccc2c(O)c1C(=O)Nc1nccs1`: the melting point turned out to be 234 °C.

`N#CCc1cccn1Cc1ccccc1` had a melting point of 62 to 63 °C.

The molecule `CNc1cc(NS(=O)(=O)c2ccc(C)cc2)nc(NC)n1` displayed a melting point of 270 to 272 °C.

`O=C(c1ccccc1)c1ccc(-c2nc(COc3ccc(CCCn4ccnc4)cc3)co2)cc1` came in with a melting point of 112 to 113 °C.

Molecule `CC(=O)SC(CC(=O)c1ccc(Cl)cc1Cl)C(=O)O` (stereo unspecified) came in with a melting point of 73 to 74.5 °C.

With `N#CCCCCCC(=O)c1ccc(Cl)cc1`, the melting point is 44 to 46 °C.

As for `CCOP(=O)(Cc1ccc2cc(CP(=O)(OCC)OCC)ccc2c1)OCC`, the melting point was in the range of 151 to 153 °C.

Regarding `O=C1Nc2cc([N+](=O)[O-])ccc2OC1CCO` (stereo unspecified), the melting point lay within 174 to 175 °C.

The molecule `CC(C)(CO)COc1ccc(NC(=O)c2csc3c2CCCC3)cc1C#N` had a melting point of 148 to 150 °C.

On to `CCCc1cc(C)nc(-c2cccc(Oc3ccccc3Cl)n2)n1`, for which the melting point worked out at 73.7 °C.

Take `COc1c(S(=O)(=O)Cl)ccc(Cl)c1C`: the melting point lay in the range of 88 to 92 °C.

Regarding `CS(=O)(=O)c1ccc(C(CC2CCCC2)C(=O)Nc2ccccn2)cc1Br` (stereo unspecified), the melting point was in the range of 99 to 101 °C.

On to `CCCc1sc(-c2ccccc2)nc1OC(=O)NC(C)(C)C`, for which the melting point is 97 to 98 °C.

Turning to `CCCc1c(OCCCCCc2nnn[nH]2)ccc(C(C)=O)c1O`, the melting point lay in the range of 95 to 96 °C.

For `CS(=O)(=O)OCCc1ccc([N+](=O)[O-])cc1COS(C)(=O)=O`, the melting point lay in the range of 83 to 85 °C.

On to `COC(=O)COc1ccc(C(=O)CN2CCN(c3ccnc(C)c3)CC2)cc1`, for which the melting point lay in the range of 155 to 157 °C.

`CCOC(=O)C(Cc1ccc(OC)cc1)c1cc2cc(C#N)ccc2s1` (stereo unspecified): the melting point lay within 93 to 96 °C.

`COCCOc1cc(N)c(Cl)cc1C(=O)OC` registered a melting point of 121 to 122 °C.

`CCCCCCc1nc2cnc3ccccc3c2n1CCCCNS(=O)(=O)c1ccccc1` came in with a melting point of 137 to 138 °C.

`CN1CCCCCC1=NC(=O)Nc1c(Cl)cccc1Cl`: the melting point was 143 to 144 °C.

Take `CCOc1ccc(C2=NN(C(=O)c3cccc(N)c3)CCC2)cc1OCC`: the melting point was in the range of 162 to 163 °C.

In the case of `CC(c1ccncc1F)C(O)(Cn1cncn1)c1ccc(F)cc1F` (stereo unspecified), the melting point fell in the range of 188 to 189 °C.

For the molecule `CCOC(=O)COc1cc(C)nc2c(OCc3c(Cl)ccc(N(C)C(=O)CNC(=O)C=Cc4ccc(C(=O)NC)cc4)c3Cl)cccc12`, the melting point lay in the range of 134 to 147 °C.
